#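 The compound was tested at five concentrations on cells cultured in 96-well plates, with a 48-hour exposure period. GI50: concentration for 50% inhibition of growth. The concentration for full growth arrest is given as TGI.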 Where a SMILES comes first, the peptide text is derived from it. [ ]: non-standard residue; d: D form. Phe(ol) = N[C@H](CO)Cc1ccccc1; dIva = CC[C@@](C)(N)C(=O)O; Aib = CC(C)(N)C(=O)O
# Key:
# Test in all cases: growth of human tumour cells (NCI), 48 h
# [1] = system: MDA-MB-468 breast
# [2] = system: RXF 393 renal
# [3] = system: OVCAR-3 ovarian
# [4] = system: UACC-257 melanoma
# [5] = system: HL-60(TB) leukemia
# [6] = system: HCT-15 colon
# [7] = system: SN12C renal
# [8] = system: MALME-3M melanoma
# [9] = system: IGROV1 ovarian
# [10] = system: SK-MEL-5 melanoma
# [11] = system: A498 renal
# [12] = system: MOLT-4 leukemia
# [13] = system: SK-MEL-2 melanoma
# [14] = system: HOP-92 NSCLC
# [15] = system: HS 578T breast
# [16] = system: SF-295 CNS
# [17] = system: UO-31 renal
# [18] = system: UACC-62 melanoma
# [19] = system: MDA-MB-231 breast
# [20] = system: SW-620 colon
# [21] = system: SR leukemia
# [22] = system: CAKI-1 renal
# [23] = system: CCRF-CEM leukemia
# [24] = system: MDA-MB-435
# [25] = system: NCI-H226 lung
# [26] = system: DU-145 prostate
# [27] = system: SNB-75 CNS
# [28] = system: NCI/ADR-RES ovarian
# [29] = system: NCI-H460 lung
smiles,measurement,setting,value
C/C=C/c1cc2c(cc1O)CC[C@@H]1[C@@H]2CC[C@]2(C)[C@@H](O)CC[C@@H]12,GI50,[1],2.99 µM
same,TGI,[1],17.1 µM
CCCCC(=O)N(c1ccc(Nc2c3ccccc3nc3cc([N+](=O)[O-])ccc23)cc1)S(C)(=O)=O,GI50,[1],0.433 µM
same,TGI,[1],5.7 µM
Cc1ccc(/C=N/NC(=O)c2ccccc2Oc2ccccc2)o1,GI50,[1],19.6 µM
same,TGI,[1],65.7 µM
COc1ccc2c(C3=C(c4cn(C)c5ccccc45)C(=O)NC3=O)coc2c1,GI50,[1],0.278 µM
same,TGI,[1],3.48 µM
Cc1nc2sc(C(=O)Nc3cccc(Br)c3C)c(N)c2cc1C(O)c1ccccc1 (stereo not given),GI50,[1],0.0398 µM
same,TGI,[1],26 µM
Cc1ccc(C(C)C)cc1Oc1cccc(-c2c(-c3ccc(C(F)(F)F)cc3)ncn2C2CCNCC2)n1,GI50,[2],1.34 µM
same,TGI,[2],2.72 µM
same,GI50,[3],1.8 µM
same,TGI,[3],3.28 µM
same,GI50,[4],1.75 µM
same,TGI,[4],3.4 µM
same,GI50,[5],1.05 µM
same,TGI,[5],3.36 µM
same,GI50,[6],1.36 µM
same,TGI,[6],2.69 µM
same,GI50,[7],1.35 µM
same,TGI,[7],2.66 µM
same,GI50,[8],1.43 µM
same,TGI,[8],2.77 µM
same,GI50,[9],1.34 µM
same,TGI,[9],2.67 µM
same,GI50,[10],1.61 µM
same,TGI,[10],2.99 µM
same,GI50,[11],1.57 µM
same,TGI,[11],3.05 µM
same,GI50,[12],1.69 µM
same,TGI,[12],4.44 µM
same,GI50,[13],1.82 µM
same,TGI,[13],3.47 µM
same,GI50,[14],1.35 µM
same,TGI,[14],2.84 µM
same,GI50,[15],1.68 µM
same,TGI,[15],3.67 µM
same,GI50,[16],1.53 µM
same,TGI,[16],2.97 µM
same,GI50,[17],1.33 µM
same,TGI,[17],2.63 µM
same,GI50,[18],1.44 µM
same,TGI,[18],2.76 µM
same,GI50,[19],1.48 µM
same,TGI,[19],2.81 µM
same,GI50,[20],1.47 µM
same,TGI,[20],2.91 µM
same,GI50,[21],1.61 µM
same,TGI,[21],4.13 µM
same,GI50,[22],1.42 µM
same,TGI,[22],2.85 µM
same,GI50,[23],2.26 µM
same,TGI,[23],27.9 µM
same,GI50,[24],1.7 µM
same,TGI,[24],3.19 µM
same,GI50,[25],1.48 µM
same,TGI,[25],3.01 µM
same,GI50,[1],1.33 µM
same,TGI,[1],2.73 µM
same,GI50,[26],1.68 µM
same,TGI,[26],3.1 µM
same,GI50,[27],1.3 µM
same,TGI,[27],2.68 µM
same,GI50,[28],1.6 µM
same,TGI,[28],3.19 µM
same,GI50,[29],1.63 µM
same,TGI,[29],3.08 µM
Cc1ccc(C[As+](c2ccccc2)(c2ccccc2)c2ccccc2)cc1,GI50,[1],0.185 µM
same,TGI,[1],1.08 µM
COC(=O)c1c[nH]c2cc(OC(C)C)c(OC(C)C)cc2c1=O,GI50,[1],> 100 µM
same,TGI,[1],> 100 µM
C#C[C@@]1(O)[C@@H](CO)O[C@@H](n2cc(Br)c3c(Cl)ccnc32)[C@@H]1O,GI50,[1],0.836 µM
same,TGI,[1],> 31.6 µM
CC[C@@H](C)/C=C(C)/C=C/C(=O)c1c(O)c(-c2ccc(OC(=O)[C@@]34CC[C@@](C)(C(=O)O3)C4(C)C)cc2)cn(O)c1=O,GI50,[1],1.32 µM
same,TGI,[1],10.8 µM
Cc1sc(C(=O)c2cncnc2N[C@@H]2C[C@H](COS(N)(=O)=O)[C@@H](O)C2)cc1[C@@H]1NCCc2ccc(Cl)cc21,GI50,[1],0.104 µM
same,TGI,[1],14.8 µM
CC12OC(CC(O)C1O)n1c3ccccc3c3c4c(c5c6ccccc6n2c5c31)C(=O)N(CCN1CCOCC1)C4=O (stereo not given),GI50,[1],1.17 µM
same,TGI,[1],3.19 µM
CCN(CC)C1Oc2cc3c(cc2C(c2cc(OC)c(O)c(OC)c2)C1C)OCO3 (stereo not given),GI50,[1],11.6 µM
same,TGI,[1],70.7 µM
C=C1C(=O)O[C@H]2[C@H]1CC/C(COC(=O)c1cccnc1N)=C\CC[C@@]1(C)O[C@@H]21,GI50,[1],0.958 µM
same,TGI,[1],4.18 µM
COC(=O)[C@]12CC[C@@H](C)[C@H](C)[C@@H]1C1=CC[C@@H]3[C@@]4(C)C(C=O)=C[C@@](C)(CO)[C@@H]4[C@H](O)C[C@@]3(C)[C@]1(C)CC2,GI50,[1],4.36 µM
same,TGI,[1],18.9 µM
COc1cc2c(cc1OC)C(C(CCCCCC(CCC(C)C)C1NCCc3cc(OC)c(OC)cc31)CCC(C)C)NCC2 (stereo not given),GI50,[1],0.588 µM
same,TGI,[1],1.25 µM
CN1CCN(CCCNC(=O)c2c3c(n4ccccc24)C(=O)c2ncccc2C3=O)CC1,GI50,[1],0.637 µM
same,TGI,[1],1.86 µM
CCOc1cc(-c2nncn2C)ccc1Nc1ncc2cc(C)nc(NCC(C)(C)C)c2n1,GI50,[1],> 20.2 µM
same,TGI,[1],> 100 µM
Brc1ccccc2cc(-c3ccccc3)nc1-2,GI50,[1],4.7 µM
same,TGI,[1],> 56.6 µM
CCc1nc(C)cn1C(=O)OCc1nc2nc(Cl)nc(N3CCOCC3)c2[nH]1,GI50,[1],0.925 µM
same,TGI,[1],2.46 µM
NCCCNc1nc2ccccc2c2c(=O)c3cc(F)ccc3sc12,GI50,[1],1.2 µM
same,TGI,[1],2.59 µM
Cc1ccc(N)cc1[As]=[As]c1cc(N)ccc1C (stereo not given),GI50,[1],0.243 µM
same,TGI,[1],0.944 µM
COc1ccc(Cn2cc(COc3cc(/C=C/C(=O)c4cc(OC)c(OC)c(OC)c4)ccc3OC)nn2)cc1,GI50,[1],2.05 µM
same,TGI,[1],7 µM
Cn1ncc(C#N)c1-c1ccc2c(c1)CN([C@H](CN)Cc1cccc(F)c1)C2=O,GI50,[1],0.105 µM
same,TGI,[1],2.97 µM
c1ccc(-c2[nH]ncc2-c2ccnc(-c3ccc(OCCN4CCOCC4)cc3)c2)nc1,GI50,[1],> 25 µM
same,TGI,[1],> 25 µM
CN(C)c1ccc(/C=C(\C#N)c2cc3ccccc3[nH]2)cc1,GI50,[1],0.373 µM
same,TGI,[1],4.2 µM
C=C1c2nc3ccccc3n2C=C(c2cccc(Cl)c2)N1Cc1ccc(OC)cc1,GI50,[1],0.784 µM
same,TGI,[1],17.2 µM
COc1cccc2c1C(=O)c1c(O)c3c(c(O)c1C2=O)C[C@@](O)(/C(CO)=N/NC(=O)CCCCCN1C(=O)C=CC1=O)C[C@@H]3O[C@H]1C[C@H](N)[C@H](O)[C@H](C)O1,GI50,[1],0.438 µM
same,TGI,[1],2.75 µM
C[C@@H](Nc1cc(F)cc(F)c1)c1cc(C(=O)N(C)C)cc2c(=O)cc(N3CCOCC3)oc12,GI50,[1],0.692 µM
same,TGI,[1],13.1 µM
Cn1c(CCCC(=O)O)nc2cc(N(CCCl)CCCl)ccc21,GI50,[1],17.1 µM
same,TGI,[1],> 100 µM
CCN1CCN(c2nc(C)cc(NCc3cc(Nc4ccnc5cc(Cl)ccc45)ccc3F)n2)CC1,GI50,[1],1.55 µM
same,TGI,[1],3.51 µM
Oc1ccc2c(=S)cc(-c3ccc(Br)cc3)oc2c1O,GI50,[1],2.08 µM
same,TGI,[1],6.5 µM
CN1CCC2(CC1)N=C(SCC(=O)Nc1cnc3ccccc3c1)C(c1ccc(Br)cc1)=N2,GI50,[1],1.76 µM
same,TGI,[1],3.5 µM
O=C(Nc1ccncc1)C(=O)c1cn(S(=O)(=O)c2cccc(Cl)c2)c2ccccc12,GI50,[1],0.763 µM
same,TGI,[1],45.3 µM
C=CCn1c2ccccc2c2c3c(c4c5ccccc5n(CC=C)c4c21)C(=O)N(O)C3=O,GI50,[1],3.88 µM
same,TGI,[1],41.9 µM
COc1cc(-c2nn(-c3ccc(NC(=O)Nc4cc(C(F)(F)F)cc(C(F)(F)F)c4)cc3)cc2-c2ccncc2)ccc1Cl,GI50,[1],1.45 µM
same,TGI,[1],3.35 µM
O=C(O)CCC(c1ccccc1)(c1ccccc1)c1ccccc1,GI50,[1],57.9 µM
same,TGI,[1],> 100 µM
CC1=CC(=O)N(c2cccc3c(N4C(=O)C=C(C)C4=O)cccc23)C1=O,GI50,[1],2.09 µM
same,TGI,[1],5.51 µM
O=C(Nc1nc(-c2ccc(Cl)cc2)cs1)c1cc(O)c(O)c(O)c1,GI50,[1],213 µM
same,TGI,[1],2290 µM
O=C1/C(=C\c2ccc(F)cc2)CN(C(=O)c2ccccc2F)C/C1=C\c1ccc(F)cc1,GI50,[1],1.51 µM
same,TGI,[1],3.4 µM
COC(=O)[C@H](Cc1cn(C)cn1)NC(=O)[C@H](CC(=O)OCc1ccccc1)NC(=O)Nc1cc(C(F)(F)F)cc(C(F)(F)F)c1,GI50,[1],2.1 µM
same,TGI,[1],6.55 µM
CC[C@@](C)(NC(=O)C(C)(C)NC(=O)[C@@H](NC(=O)[C@@H]1CCCN1C(=O)C(C)(C)NC(=O)[C@H](CC(C)C)NC(=O)CNC(=O)C(C)(C)NC(=O)[C@@H](NC(=O)C(C)(C)NC(=O)[C@H](CCC(N)=O)NC(=O)[C@H](C)NC(=O)C(C)(C)NC(=O)[C@H](C)NC(=O)C(C)(C)NC(=O)[C@@H]1CCCN1C(=O)C(C)(C)NC(C)=O)C(C)C)C(C)C)C(=O)N[C@@H](CCC(N)=O)C(=O)N[C@@H](CCC(N)=O)C(=O)N[C@H](CO)Cc1ccccc1 (Ac-[Aib]P[Aib]A[Aib]AQ[Aib]V[Aib]GL[Aib]PV[Aib][dIva]QQ[Phe(ol)]),GI50,[1],0.867 µM
same,TGI,[1],3.67 µM
COc1ccc(OC)c(Nc2nc3nonc3nc2Nc2cccc(Br)c2)c1,GI50,[1],0.343 µM
same,TGI,[1],3.88 µM
O=C(/C=C/c1ccccc1)c1cccc2ccccc12,GI50,[1],2 µM
same,TGI,[1],5.64 µM
O=C(Oc1ccccc1)N(c1ccccc1)c1ccccc1,GI50,[1],24 µM
same,TGI,[1],87.7 µM
NC(=O)c1c(NC(=O)c2cccs2)sc2c1CCC(=O)C2,GI50,[1],2.58 µM
same,TGI,[1],8.77 µM
COc1cc(C(=O)/C=C/c2cc(-c3ccc4c(c3)OCO4)n[nH]2)cc(OC)c1OC,GI50,[1],1.4 µM
same,TGI,[1],3.5 µM

# Reference: PubChem BioAssay (NCI)
